# Measurements taken from article PMC6013238, “Development of novel NEMO-binding domain mimetics for inhibiting IKK/NF-κB activation” (PLoS Biology, 2018).
# “Also recorded” adds a separate entry of the source.
# Legend:
# IKKβ/NEMO interaction = molecular target: T1, IKKβ/NEMO interaction (Mus musculus, UniProt O88522); assay: Co-immunoprecipitation of endogenous IKKβ and NEMO in Raw 264.7 cells; type: cell-based; details: 100 μM mimetics, 8K-NBD 400 μM, 30 min
# T1 construct: Co-immunoprecipitation of endogenous IKKβ and NEMO; endogenous in cells; host or cells: Raw 264.7
# Experimental: (§1) To determine whether the novel NBD mimetics target the NEMO-IKKβ interaction in vivo, co-immunoprecipitations were performed using extracts from Raw 264.7 macrophages (Fig 5A). […] No interaction between NEMO and TNF receptor-associated factor 2 (TRAF2) or IκBα was observed under these conditions. […] The levels of phosphorylated IKK complex, IκBα, and p65 in response to TNF-α and LPS were all reduced by SR12343 (Fig 5D & 5E). […] However, there were no changes in the levels of phospho-c-Jun N-terminal kinase (p-JNK), p-p38MAPK, total JNK, and p38MAPK by treatment with SR12343 (150 μM) in response to TNF-α or LPS stimulation (Fig 5G & 5H). […]
# (§2) (A) Co-IP analysis detecting the IKKβ/NEMO interaction. […] NEMO-binding products were then analyzed for levels of IKKβ, IKKα, TRAF2, and IκBα (negative control), and levels of NEMO were used as a loading control (left panel). […] The levels of IKKβ-FLAG binding to GST-NEMO were determined by western blot analysis with GST-NEMO used as a loading control. […] Cell lysates were analyzed for activity of the IKK/NF-κB signaling pathway including activation of IKK complex, IκBα, and p65. […] Cell lysates were harvested and analyzed for activation of noncanonical NF-κB signaling, the processing of p100 to p52. […]
# GST-NEMO and FLAG-IKKβ = molecular target: T2, GST-NEMO and FLAG-IKKβ (Homo sapiens, UniProt Q9Y6K9); assay: IKKβ-NEMO binding assay (GST pull-down, recombinant proteins); details: at 12.5 μM; 15 nM each protein
# T2 construct: Recombinant full-length NEMO tagged with GST at the N-terminus; purchased SignalChem (GST-NEMO); Origene (IKKβ-FLAG)
# Experimental: as §1, §2
# [1] = tested on: phosphorylated IKK complex, IκBα and p65; assay: Western blot of IKK/NF-κB signaling in Raw 264.7 cells (TNF-α or LPS); type: cell-based, mouse; details: 150 μM (S2A Fig: 0-150 μM), 30 min; TNF-α 10 ng/ml or LPS 1 μg/ml 10 min
# Experimental: as §1, §2
# [2] = tested on: noncanonical NF-κB pathway; assay: Noncanonical NF-κB pathway, anti-LTβR-stimulated Raw 264.7 cells (p100 to p52 processing); type: cell-based, mouse; details: 100 μM, 30 min; anti-LTβR 8 h
# Experimental: as §1, §2
# T2 sequence (Q9Y6K9 whole entry): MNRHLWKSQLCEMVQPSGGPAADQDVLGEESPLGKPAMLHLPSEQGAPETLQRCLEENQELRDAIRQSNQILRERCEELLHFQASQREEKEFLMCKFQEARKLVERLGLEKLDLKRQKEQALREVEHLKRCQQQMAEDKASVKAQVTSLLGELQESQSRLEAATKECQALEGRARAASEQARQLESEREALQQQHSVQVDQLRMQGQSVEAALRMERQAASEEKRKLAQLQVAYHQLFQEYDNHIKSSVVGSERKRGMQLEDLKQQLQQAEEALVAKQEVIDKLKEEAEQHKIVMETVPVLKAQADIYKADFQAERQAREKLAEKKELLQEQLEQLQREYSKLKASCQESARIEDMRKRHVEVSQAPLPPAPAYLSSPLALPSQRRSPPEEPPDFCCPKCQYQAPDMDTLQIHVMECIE
# T1 sequence (O88522 whole entry): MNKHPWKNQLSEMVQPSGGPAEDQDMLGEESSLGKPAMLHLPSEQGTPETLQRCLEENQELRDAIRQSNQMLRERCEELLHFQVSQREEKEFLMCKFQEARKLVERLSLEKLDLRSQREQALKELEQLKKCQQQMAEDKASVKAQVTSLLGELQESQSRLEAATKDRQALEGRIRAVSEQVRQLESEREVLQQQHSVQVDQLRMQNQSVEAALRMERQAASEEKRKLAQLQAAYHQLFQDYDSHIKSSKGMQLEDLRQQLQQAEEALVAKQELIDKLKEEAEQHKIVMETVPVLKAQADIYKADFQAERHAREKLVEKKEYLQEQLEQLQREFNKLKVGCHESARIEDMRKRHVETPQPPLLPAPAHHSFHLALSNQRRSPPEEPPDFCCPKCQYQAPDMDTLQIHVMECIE
smiles,measurement,setting,value
O=C(CNc1ccc(Cl)cn1)NCCc1cccc(Br)c1 [SR12343],IKKβ-NEMO interaction (Co-IP),IKKβ/NEMO interaction,most effective
same,Disruption of interaction between GST-NEMO and FLAG-IKKβ,GST-NEMO and FLAG-IKKβ,able to disrupt
same,"Levels of phosphorylated IKK complex, IκBα and p65",[1],inhibited phosphorylation of IKKα/β and p65 and prevented IκBα from degradation; also recorded: all reduced
same,Activation of noncanonical NF-κB pathway (p100 to p52 processing),[2],no effect
